According to publication PMC7618541 (Science (New York, N.Y.), 2025):

Experiments:
[1] = biological target: Nudix hydrolase 5 (NUDT5) (Homo sapiens, UniProt Q9UKK9); assay: PROTAC degradation of endogenous NUDT5 in cells, western blot, […] h; assay type: cell-based
[2] = biological target: phosphoribosyl pyrophosphate amidotransferase (PPAT) (Homo sapiens, UniProt Q06203); assay: GDH-coupled NADH fluorescence assay of purified PPAT; assay type: biochemical
Sequence of phosphoribosyl pyrophosphate amidotransferase (PPAT) (Q06203 12-517): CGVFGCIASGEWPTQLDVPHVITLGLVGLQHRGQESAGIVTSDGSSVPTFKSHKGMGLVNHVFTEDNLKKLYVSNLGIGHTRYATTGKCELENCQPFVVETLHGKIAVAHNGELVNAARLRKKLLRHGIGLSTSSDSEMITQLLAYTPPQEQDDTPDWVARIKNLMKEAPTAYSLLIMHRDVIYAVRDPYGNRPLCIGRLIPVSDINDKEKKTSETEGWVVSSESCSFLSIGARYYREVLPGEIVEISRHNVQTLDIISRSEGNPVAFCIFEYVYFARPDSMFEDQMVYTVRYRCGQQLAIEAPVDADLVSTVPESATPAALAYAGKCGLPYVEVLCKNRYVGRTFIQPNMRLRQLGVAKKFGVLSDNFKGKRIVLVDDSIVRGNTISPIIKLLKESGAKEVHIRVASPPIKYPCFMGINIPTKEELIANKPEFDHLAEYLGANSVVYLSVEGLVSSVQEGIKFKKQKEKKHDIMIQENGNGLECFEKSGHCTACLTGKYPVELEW

Row | PROTAC degradation of endogenous NUDT5 in cells, western blot, 20 h [1] [nM] | Compound | GDH-coupled NADH fluorescence assay of purified PPAT [2]
1 | 100 | Cn1c(=O)c2c(nc(N3CCN(C(=O)N4CCC(CN5CCN(c6ccc7c(c6)C(=O)N(C6CCC(=O)NC6=O)C7=O)CC5)CC4)CC3)n2Cc2nnc(-c3ccc(Cl)c(Cl)c3)o2)n(C)c1=O (centres unmarked) [dNUDT5] | –
2 | – | NC(=O)CC[C@H](N)C(=O)O [glutamine] | the first half reaction of PPAT reaction was assayed by monitoring the production of glutamate from glutamine
